ChEMBL document CHEMBL5625182, “Synthesis and antibacterial activities of baulamycin A inspired derivatives” (Eur J Med Chem, 2023)
≈ marks a conversion by molar mass, not a printed value. Calls of active or inactive are those of the source. The rule behind the calls is not given here.

Key:
[1] = molecular target: T1, L-2,3-diaminopropanoate--citrate ligase (Staphylococcus aureus (strain NCTC 8325 / PS 47)) (UniProt Q2G1M9); test: Inhibition of Staphylococcus aureus SbnE at 50 uM incubated for 1 hr by malachite green staining based microplate reader analysis relative to control
T1 sequence (whole entry): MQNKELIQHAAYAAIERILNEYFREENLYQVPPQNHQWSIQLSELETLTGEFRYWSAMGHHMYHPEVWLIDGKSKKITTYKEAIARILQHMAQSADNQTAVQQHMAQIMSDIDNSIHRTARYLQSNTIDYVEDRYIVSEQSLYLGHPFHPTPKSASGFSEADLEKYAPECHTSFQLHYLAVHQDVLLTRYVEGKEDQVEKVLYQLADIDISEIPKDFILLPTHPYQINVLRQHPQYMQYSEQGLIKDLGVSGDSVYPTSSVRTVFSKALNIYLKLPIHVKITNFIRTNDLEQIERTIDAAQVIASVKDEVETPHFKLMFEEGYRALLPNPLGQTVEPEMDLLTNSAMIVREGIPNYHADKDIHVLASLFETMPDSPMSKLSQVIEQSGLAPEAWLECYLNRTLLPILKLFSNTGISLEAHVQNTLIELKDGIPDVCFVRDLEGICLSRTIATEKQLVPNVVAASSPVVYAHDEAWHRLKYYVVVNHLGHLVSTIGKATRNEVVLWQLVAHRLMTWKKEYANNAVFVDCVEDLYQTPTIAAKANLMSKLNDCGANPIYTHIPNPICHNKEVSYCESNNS

Bacillus cereus = test: Antibacterial activity against Bacillus cereus ATCC27348 assessed as inhibition of bacterial growth incubated for 18 hrs by microdilution method; assay type: functional
Cell membrane = test: Induction of membrane disruption in methicillin resistant Staphylococcus aureus CCARM3167 at MIC incubated for 30 mins PI staining based Flow cytometry
Staphylococcus aureus [2] = test: Antibacterial activity against methicillin resistant Staphylococcus aureus CCARM3167 assessed as inhibition in bacterial growth incubated for 18 hrs by microdilution method; assay type: functional
[3] = molecular target: T2, L-2,3-diaminopropanoate--citrate ligase (Staphylococcus aureus (strain NCTC 8325 / PS 47), UniProt Q2G1M9); test: Inhibition of Staphylococcus aureus SbnE incubated for 1 hr by malachite green staining based microplate reader analysis
T2 sequence (Q2G1M9 whole entry): T1 sequence (whole entry)

[4] = Antibacterial activity against Bacillus subtilis ATCC6633 assessed as inhibition of bacterial growth incubated for 18 hrs by microdilution method; assay type: functional, Bacillus subtilis […]
Staphylococcus aureus [5] = test: Antibacterial activity against methicillin resistance Staphylococcus aureus assessed as reduction in biofilm formation at 1/2 times MIC incubated 24 hrs by crystal violet staining based microplate reader analysis; assay type: functional, organism-based
Escherichia coli = test: Antibacterial activity against Escherichia coli MC1061 assessed as inhibition of bacterial growth incubated for 18 hrs by microdilution method; assay type: functional
Salmonella typhimurium = test: Antibacterial activity against Salmonella typhimurium ATCC14028 assessed as inhibition of bacterial growth incubated for 18 hrs by microdilution method; assay type: functional, Salmonella enterica subsp. enterica serovar Typhimurium; details: Salmonella enterica
Staphylococcus aureus [6] = test: Antibacterial activity against […] Staphylococcus aureus ATCC25923 assessed as inhibition in bacterial growth incubated for 18 hrs by microdilution method; assay type: functional
Staphylococcus aureus [7] = test: Antibacterial activity against quinolone-resistant Staphylococcus aureus CCARM3505 assessed as inhibition of bacterial growth incubated for 18 hrs by microdilution method; assay type: functional

For `Cc1ccc(NCC[C@@H](O)[C@@H](CC(C)C)[C@@H](O)c2cc(O)cc(O)c2)c(Cl)c1`, the inhibition [1] was 89.2%, the MIC (Bacillus cereus) was over 256 µg/mL and the Activity (Cell membrane) was “Active”. For the same compound, the MIC (Staphylococcus aureus [2]) was 32 µg/mL (≈ 78.4 µM), the IC50 [3] was 4.12 µM and the MIC [4] was over 256 µg/mL. The Activity (Staphylococcus aureus [5]) was “Active”, the MIC (Escherichia coli) was over 256 µg/mL and the MIC (Salmonella typhimurium) was over 256 µg/mL. It also gave an MIC (Staphylococcus aureus [6]) of 16 µg/mL (≈ 39.2 µM) and an MIC (Staphylococcus aureus [7]) of 64 µg/mL (≈ 157 µM).
In the case of `CC(C)C[C@@H]([C@H](O)CCNCc1ccccc1)[C@@H](O)c1cc(O)cc(O)c1`, the inhibition [1] is reported as 5.63%, the MIC (Staphylococcus aureus [2]) is reported as over 256 µg/mL and the MIC (Staphylococcus aureus [6]) is reported as over 256 µg/mL.
With `CC(C)C[C@H]([C@H](O)CC(O)C#C[C@@H](C)C[C@@H](C)C[C@@H](C)CO)[C@@H](O)c1cc(O)cc(O)c1` (stereo partly drawn) the inhibition [1] was 74.7%, the MIC (Staphylococcus aureus [2]) was 64 µg/mL (≈ 142 µM) and the IC50 [3] was 6.76 µM. The MIC (Staphylococcus aureus [6]) was 64 µg/mL (≈ 142 µM).
With `CC(C)C[C@H]([C@H](O)CCNCc1ccco1)[C@@H](O)c1cc(O)cc(O)c1` the inhibition [1] was 34.5%, the MIC (Staphylococcus aureus [2]) was over 256 µg/mL and the MIC (Staphylococcus aureus [6]) was over 256 µg/mL.
`C[C@@H](COCc1ccccc1)C[C@H](C)C[C@H](C)C#CC(O)c1cc(O)cc(O)c1` (stereo partly drawn) gave an inhibition [1] of 34.8%, an MIC (Staphylococcus aureus [2]) of 4 µg/mL (≈ 10.1 µM) and an MIC (Staphylococcus aureus [6]) of 2 µg/mL (≈ 5.04 µM).
Compound `Cc1ccc(NCC[C@H](O)[C@@H](CC(C)C)[C@@H](O)c2cc(O)cc(O)c2)c(Cl)c1` has an inhibition [1] of 54.8%, an MIC (Staphylococcus aureus [2]) of 64 µg/mL (≈ 157 µM) and an IC50 [3] of 18.9 µM. For the same compound, the MIC (Staphylococcus aureus [6]) was 64 µg/mL (≈ 157 µM).
`CCC(O)[C@H](C)C[C@H](C)C[C@H](C)CC[C@@H](O)C[C@@H](O)[C@@H](CC(C)C)[C@@H](O)c1cc(O)cc(O)c1` (stereo partly drawn) gave an inhibition [1] of 58.7%, an MIC (Staphylococcus aureus [2]) of 32 µg/mL (≈ 66.3 µM) and an IC50 [3] of 17.1 µM. For the same compound, the MIC (Staphylococcus aureus [6]) was 32 µg/mL (≈ 66.3 µM).
In the case of `CC(C)C[C@H]([C@H](O)C[C@H](O)C#CCCCCCCOCc1ccccc1)[C@@H](O)c1cc(O)cc(O)c1`, the inhibition [1] is reported as 81.9%, the MIC (Bacillus cereus) is reported as 64 µg/mL (≈ 128 µM) and the Activity (Cell membrane) is reported as “Active”. The MIC (Staphylococcus aureus [2]) was 128 µg/mL (≈ 257 µM), the IC50 [3] was 10.2 µM and the MIC [4] was over 256 µg/mL. The MIC (Escherichia coli) was over 256 µg/mL, the MIC (Salmonella typhimurium) was over 256 µg/mL and the MIC (Staphylococcus aureus [6]) was 128 µg/mL (≈ 257 µM). It also gave an MIC (Staphylococcus aureus [7]) of 128 µg/mL (≈ 257 µM).
With `CC(C)C[C@@H]([C@H](O)C[C@H](O)C#C[C@@H](C)C[C@H](C)C[C@@H](C)COCc1ccccc1)[C@@H](O)c1cc(O)cc(O)c1` the inhibition [1] was 76.8%, the MIC (Staphylococcus aureus [2]) was 64 µg/mL (≈ 118 µM) and the IC50 [3] was 11.8 µM. For the same compound, the MIC (Staphylococcus aureus [6]) was 64 µg/mL (≈ 118 µM).
In the case of `CCN(CC[C@@H](O)[C@@H](CC(C)C)[C@@H](O)c1cc(O)cc(O)c1)Cc1ccccc1`, the inhibition [1] is reported as 5.19%, the MIC (Staphylococcus aureus [2]) is reported as 16 µg/mL (≈ 39.8 µM) and the MIC (Staphylococcus aureus [6]) is reported as 16 µg/mL (≈ 39.8 µM).
In the case of `CC(C)C[C@H]([C@H](O)CCNc1ccccc1O)[C@@H](O)c1cc(O)cc(O)c1`, the inhibition [1] is reported as 4.87%, the MIC (Staphylococcus aureus [2]) is reported as 64 µg/mL (≈ 170 µM) and the MIC (Staphylococcus aureus [6]) is reported as 64 µg/mL (≈ 170 µM).
In the case of `CC(C)C[C@@H]([C@H](O)C[C@H](O)CCCCCCCCO)[C@@H](O)c1cc(O)cc(O)c1`, the inhibition [1] is reported as 38.4%, the MIC (Staphylococcus aureus [2]) is reported as over 256 µg/mL and the MIC (Staphylococcus aureus [6]) is reported as over 256 µg/mL.
Work on `Cc1ccc([N+](=O)[O-])cc1NCC[C@@H](O)[C@@H](CC(C)C)[C@@H](O)c1cc(O)cc(O)c1` yielded an inhibition [1] of 32%, an MIC (Staphylococcus aureus [2]) of 64 µg/mL (≈ 153 µM) and an MIC (Staphylococcus aureus [6]) of 32 µg/mL (≈ 76.5 µM).
`CCC(=O)[C@@H](C)C[C@@H](C)C[C@@H](C)CCCC[C@@H](O)[C@@H](CC(C)C)[C@@H](O)c1cc(O)cc(O)c1` gave an inhibition [1] of 81.5%, an MIC (Staphylococcus aureus [2]) of 4 µg/mL (≈ 8.61 µM) and an IC50 [3] of 16.4 µM. It also gave an MIC (Staphylococcus aureus [6]) of 8 µg/mL (≈ 17.2 µM).
In the case of `CC(C)C[C@H]([C@H](O)CCNc1ccccc1)[C@@H](O)c1cc(O)cc(O)c1`, the inhibition [1] is reported as 75.1%, the MIC (Staphylococcus aureus [2]) is reported as 8 µg/mL (≈ 22.3 µM) and the IC50 [3] is reported as 18.2 µM. It also gave an MIC (Staphylococcus aureus [6]) of 4 µg/mL (≈ 11.1 µM).
`CC(C)C[C@H]([C@H](O)CCNc1c(Cl)cccc1Cl)[C@@H](O)c1cc(O)cc(O)c1` showed an inhibition [1] of 26.8%, an MIC (Staphylococcus aureus [2]) of 128 µg/mL (≈ 299 µM) and an MIC (Staphylococcus aureus [6]) of 256 µg/mL (≈ 598 µM).
Compound `CC(C)C[C@@H]([C@H](O)C[C@H](O)CC[C@@H](C)C[C@H](C)C[C@@H](C)CO)[C@@H](O)c1cc(O)cc(O)c1` has an inhibition [1] of 31.1%, an MIC (Staphylococcus aureus [2]) of over 256 µg/mL and an MIC (Staphylococcus aureus [6]) of over 256 µg/mL.
Work on `C[C@@H](COCc1ccccc1)C[C@H](C)C[C@H](C)C#CC(O)CC(O)C[C@@H](O)c1cc(O)cc(O)c1` (single isomer, unassigned) yielded an inhibition [1] of 33.6%, an MIC (Staphylococcus aureus [2]) of 64 µg/mL (≈ 132 µM) and an MIC (Staphylococcus aureus [6]) of 64 µg/mL (≈ 132 µM).
In the case of `CC(C)C[C@H]([C@H](O)CCNc1cc(Cl)c(F)cc1[N+](=O)[O-])[C@@H](O)c1cc(O)cc(O)c1`, the inhibition [1] is reported as 6.49%, the MIC (Staphylococcus aureus [2]) is reported as 256 µg/mL (≈ 560 µM) and the MIC (Staphylococcus aureus [6]) is reported as 128 µg/mL (≈ 280 µM).
